How the values were obtained:
[1] = test system: MV-4-11; assay: Cell growth inhibition assay (CellTiter-Glo), MV-4-11; type: cell-based, human; details: MV-4-11 cells, 4 days; for GI50: Homo sapiens, MV4-11, 96 h, half-maximal growth inhibition; for MV-4-11 TGI: total growth inhibition
Outline: (§1)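 Cells were exposed 4 days at 37 °C, 5% CO2 to 3-fold serial dilutions starting at 10 μM (0.1% DMSO vehicle). Viability was measured as ATP by CellTiter-Glo luminescence, corrected for background and a day-0 plate. IC50 and TGI were derived by four-parameter fitting.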

[2] = biological target: CREBBP (Homo sapiens (Human), UniProt Q92793); assay: AlphaScreen in-vitro binding assay for CREBBP; details: 324 nM His-CREBBP (1081-1197), acetyl-histone H4 (AcK 5, 8, 12) peptide
Sequence of CREBBP (Q92793 1081-1197): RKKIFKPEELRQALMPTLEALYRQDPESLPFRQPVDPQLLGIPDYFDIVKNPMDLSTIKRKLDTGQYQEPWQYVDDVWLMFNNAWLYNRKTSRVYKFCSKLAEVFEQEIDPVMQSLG
Outline: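 IC50 values were derived by non-linear regression of percent inhibition across 8 compound concentrations. Protein was His-tagged CREBBP bromodomain (1081-1197), peptide acetyl-histone H4 (AcK 5, 8, 12), in HEPES pH 7.5 buffer. Read-out was AlphaScreen with Ni-chelate acceptor and streptavidin donor beads, 35 min at 30° C then 60 min at RT.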

[3] = biological target: BRD2 (Homo sapiens (Human), UniProt P25440); assay: TR-FRET in-vitro binding assay for BRD2; details: 45 nM His-Brd2(60-472), acetyl-histone H4 (AcK 5, 8, 12, 16) peptide
Sequence of BRD2 (P25440 60-472): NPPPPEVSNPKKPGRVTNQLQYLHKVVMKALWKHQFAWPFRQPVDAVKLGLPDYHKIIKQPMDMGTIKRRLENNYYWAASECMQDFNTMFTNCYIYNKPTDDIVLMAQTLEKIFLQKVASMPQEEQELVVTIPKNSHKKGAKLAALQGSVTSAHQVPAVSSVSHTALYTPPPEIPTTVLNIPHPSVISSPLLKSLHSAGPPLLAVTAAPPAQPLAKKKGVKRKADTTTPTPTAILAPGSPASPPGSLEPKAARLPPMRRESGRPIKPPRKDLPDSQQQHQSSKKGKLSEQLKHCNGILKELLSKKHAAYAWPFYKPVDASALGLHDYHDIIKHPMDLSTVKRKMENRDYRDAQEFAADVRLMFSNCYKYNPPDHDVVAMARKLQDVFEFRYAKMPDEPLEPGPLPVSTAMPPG
Outline: (§2)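 TR-FRET binding read after 35 min incubation at 30° C. Compounds dispensed from 90% DMSO solutions and tested at 8 concentrations in a 13.55 μL total reaction volume.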

[4] = biological target: BRD3 (Homo sapiens (Human), UniProt Q15059); assay: TR-FRET in-vitro binding assay for BRD3; details: 45 nM His-Brd3(20-477), acetyl-histone H4 (AcK 5, 8, 12, 16) peptide
Sequence of BRD3 (Q15059 20-477): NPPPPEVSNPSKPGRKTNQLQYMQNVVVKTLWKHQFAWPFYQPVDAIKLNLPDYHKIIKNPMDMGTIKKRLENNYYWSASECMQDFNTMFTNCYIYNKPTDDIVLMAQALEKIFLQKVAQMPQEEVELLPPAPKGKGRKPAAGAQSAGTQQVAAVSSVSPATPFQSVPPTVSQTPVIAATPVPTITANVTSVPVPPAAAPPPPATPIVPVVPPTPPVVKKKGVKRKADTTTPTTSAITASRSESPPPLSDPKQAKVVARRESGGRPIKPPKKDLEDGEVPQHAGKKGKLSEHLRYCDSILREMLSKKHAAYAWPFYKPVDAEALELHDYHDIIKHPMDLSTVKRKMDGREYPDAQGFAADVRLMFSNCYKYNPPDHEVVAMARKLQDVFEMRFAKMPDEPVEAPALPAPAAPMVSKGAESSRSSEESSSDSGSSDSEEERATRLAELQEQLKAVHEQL
Outline: as §2

[5] = biological target: BRD4 (Homo sapiens (Human), UniProt O60885); assay: TR-FRET in-vitro binding assay for BRD4; details: 45 nM His-Brd4(44-477), acetyl-histone H4 (AcK 5, 8, 12, 16) peptide
Outline: as §2

[6] = test system: THP-1; assay: Cell growth inhibition assay (CellTiter-Glo), THP-1; type: cell-based, human; details: THP-1 cells, 4 days; for GI50: Homo sapiens, 96 h, half-maximal growth inhibition; for THP-1 TGI: total growth inhibition
Outline: as §1

[7] = test system: K-562; assay: Cell growth inhibition assay (CellTiter-Glo), K-562; type: cell-based, human; details: K-562 cells, 4 days; for GI50: Homo sapiens, K562, 96 h, half-maximal growth inhibition; for K-562 TGI: total growth inhibition
Outline: as §1

SMILES | GI50 [1] [nM] | IC50 [2] [nM] | IC50 [3] [nM] | IC50 [4] [nM] | IC50 [5] [nM] | GI50 [6] [nM] | GI50 [7] [nM] | MV-4-11 TGI [1] [nM] | THP-1 TGI [6] [nM] | K-562 TGI [7] [nM]
COc1ncccc1-c1cc2c(n1C)C(c1ccc(Cl)cc1)N(c1cc(C)c3nnc(C)n3c1)C2=O (centres unmarked) [Example 30, 6-(4-chlorophenyl)-5-(3,8-dimethyl-[1,2,4]triazolo[4,3-a]pyridin-6-yl)-2-(2-methoxypyridin-3-yl)-1-methyl-5,6-dihydropyrrolo[3,4-b]pyrrol-4(1H)-one] | 11.2 | 1300 | 50 | 47 | 40 | 19.8 | 57.2 | 21.3 | 39.05 | >10000
Cc1cc(N2C(=O)c3cc(C4=CCOCC4)n(C)c3C2c2ccc(Cl)cc2)cn2c(C)nnc12 (centres unmarked) [Example 31, 6-(4-chlorophenyl)-2-(3,6-dihydro-2H-pyran-4-yl)-5-(3,8-dimethyl-[1,2,4]triazolo[4,3-a]pyridin-6-yl)-1-methyl-5,6-dihydropyrrolo[3,4-b]pyrrol-4(1H)-one] | 13.3 | 3100 | 62 | 47 | 36 | 30.9 | 57.2 | 23.7 | 52.5 | >10000
Cc1cn(C)c2c1C(=O)N(c1cc(C)c3nnn(C)c3n1)C2c1ccc(Cl)cc1 (centres unmarked) [Example 32, 6-(4-chlorophenyl)-5-(3,7-dimethyl-3H-[1,2,3]triazolo[4,5-b]pyridin-5-yl)-1,3-dimethyl-5,6-dihydropyrrolo[3,4-b]pyrrol-4(1H)-one] | 111 | > 37000 | 160 | 100 | 110 | 174 | 430 | 203.5 | 343 | >10000
Cc1cc(N2C(=O)c3c(C4CC4)cn(C)c3C2c2ccc(Cl)cc2)cn(C)c1=O (centres unmarked) [Example 37, 6-(4-chlorophenyl)-3-cyclopropyl-5-(1,5-dimethyl-6-oxo-1,6-dihydropyridin-3-yl)-1-methyl-5,6-dihydropyrrolo[3,4-b]pyrrol-4(1H)-one] | 21.3 | 1900 | 38 | 32 | 37 | 44.9 | 180 | 38.55 | 98.15 | >10000
COc1nccc(-c2cc3c(n2C)C(c2ccc(Cl)cc2)N(c2cc(Cl)c(=O)n(C)c2)C3=O)n1 (centres unmarked) [Example 39, 5-(5-chloro-1-methyl-6-oxo-1,6-dihydropyridin-3-yl)-6-(4-chlorophenyl)-2-(2-methoxypyrimidin-4-yl)-1-methyl-5,6-dihydropyrrolo[3,4-b]pyrrol-4(1H)-one] | 78.6 | 1200 | 280 | 220 | 305 | 128 | 550 | 105 | 238 | >10000
COc1ncc(-c2cc3c(n2C)C(c2ccc(Cl)cc2)N(c2cc(Cl)c(=O)n(C)c2)C3=O)cn1 (centres unmarked) [Example 40, 5-(5-chloro-1-methyl-6-oxo-1,6-dihydropyridin-3-yl)-6-(4-chlorophenyl)-2-(2-methoxypyrimidin-5-yl)-1-methyl-5,6-dihydropyrrolo[3,4-b]pyrrol-4(1H)-one] | 83.9 | 365 | 72.5 | 54 | 78 | 91.9 | 326 | 127 | 137 | >10000
Cc1cc(N2C(=O)c3cc(-c4ccccn4)n(C)c3C2c2ccc(Cl)cc2)cn(C)c1=O (centres unmarked) [Example 52, 6-(4-chlorophenyl)-5-(1,5-dimethyl-6-oxo-1,6-dihydropyridin-3-yl)-1-methyl-2-(pyridin-2-yl)-5,6-dihydropyrrolo[3,4-b]pyrrol-4(1H)-one] | 872 | 720 | 67 | 54 | 55.3 | 776 | 2750 | 2355 | 2630 | >10000
COc1cccc(-c2cc3c(n2C)C(c2ccc(Cl)cc2)N(c2cc(C)c(=O)n(C)c2)C3=O)n1 (centres unmarked) [Example 59, 6-(4-chlorophenyl)-5-(1,5-dimethyl-6-oxo-1,6-dihydropyridin-3-yl)-2-(6-methoxypyridin-2-yl)-1-methyl-5,6-dihydropyrrolo[3,4-b]pyrrol-4(1H)-one] | 74 | 940 | 80 | 78 | 72 | 86.3 | 297 | 106 | 136 | >10000

Continued, in another order:

GI50 [1] [nM] | IC50 [2] [nM] | IC50 [3] [nM] | IC50 [4] [nM] | IC50 [5] [nM] | GI50 [6] [nM] | GI50 [7] [nM] | SMILES | MV-4-11 TGI [1] [nM] | THP-1 TGI [6] [nM] | K-562 TGI [7] [nM]
78.7 | 535 | 83 | 65.5 | 85 | 167 | 517 | Cn1c(-c2ccn(C)c(=O)c2)cc2c1C(c1ccc(Cl)cc1)N(c1cc(Cl)c(=O)n(C)c1)C2=O (centres unmarked) [Example 41, 5-(5-chloro-1-methyl-6-oxo-1,6-dihydropyridin-3-yl)-6-(4-chlorophenyl)-1-methyl-2-(1-methyl-2-oxo-1,2-dihydropyridin-4-yl)-5,6-dihydropyrrolo[3,4-b]pyrrol-4(1H)-one] | 128 | 307 | >10000
183 | 690 | 90 | 77 | 120 | 276 | 934 | Cn1c(-c2cccn(C)c2=O)cc2c1C(c1ccc(Cl)cc1)N(c1cc(Cl)c(=O)n(C)c1)C2=O (centres unmarked) [Example 43, 5-(5-chloro-1-methyl-6-oxo-1,6-dihydropyridin-3-yl)-6-(4-chlorophenyl)-1-methyl-2-(1-methyl-2-oxo-1,2-dihydropyridin-3-yl)-5,6-dihydropyrrolo[3,4-b]pyrrol-4(1H)-one] | 310 | 492 | >10000
264 | 310 | 54 | 41 | 66 | 1420 | 2590 | Cn1c(-c2cccc(=O)n2C)cc2c1C(c1ccc(Cl)cc1)N(c1cc(Cl)c(=O)n(C)c1)C2=O (centres unmarked) [Example 44, 5-(5-chloro-1-methyl-6-oxo-1,6-dihydropyridin-3-yl)-6-(4-chlorophenyl)-1-methyl-2-(1-methyl-6-oxo-1,6-dihydropyridin-2-yl)-5,6-dihydropyrrolo[3,4-b]pyrrol-4(1H)-one] | 391 | 2700 | >10000
165 | 280 | 19 | 16 | 14 | 525 | 1600 | Cc1cc(N2C(=O)c3cc(-c4ccc(=O)n(C)c4)n(C)c3C2c2ccc(Cl)cc2)cn(C)c1=O (centres unmarked) [Example 46, 6-(4-chlorophenyl)-5-(1,5-dimethyl-6-oxo-1,6-dihydropyridin-3-yl)-1-methyl-2-(1-methyl-6-oxo-1,6-dihydropyridin-3-yl)-5,6-dihydropyrrolo[3,4-b]pyrrol-4(1H)-one] | 292 | 1070 | >10000
98.4 | 690 | 110 | 82 | 140 | 195 | 698 | Cc1cc(N2C(=O)c3cc(-c4cccn(C)c4=O)n(C)c3C2c2ccc(Cl)cc2)cn(C)c1=O (centres unmarked) [Example 47, 6-(4-chlorophenyl)-5-(1,5-dimethyl-6-oxo-1,6-dihydropyridin-3-yl)-1-methyl-2-(1-methyl-2-oxo-1,2-dihydropyridin-3-yl)-5,6-dihydropyrrolo[3,4-b]pyrrol-4(1H)-one] | 156 | 351 | >10000
226 | 270 | 140 | 130 | 170 | 758 | 1030 | Cn1cc(N2C(=O)c3cc(-c4cccc(=O)n4C)n(C4CC4)c3C2c2ccc(Cl)cc2)cc(Cl)c1=O (centres unmarked) [Example 62, 5-(5-chloro-1-methyl-6-oxo-1,6-dihydropyridin-3-yl)-6-(4-chlorophenyl)-1-cyclopropyl-2-(1-methyl-6-oxo-1,6-dihydropyridin-2-yl)-5,6-dihydropyrrolo[3,4-b]pyrrol-4(1H)-one] | 329 | 1190 | >10000

— patent US9550796B2, “Pyrrolopyrrolone derivatives and their use as BET inhibitors” (NOVARTIS AG, priority 2013, dated 2017)
